Data: ChEMBL document CHEMBL5143507, “Small Molecule Kinase Inhibitor Drugs (1995-2021): Medical Indication, Pharmacology, and Synthesis” (J Med Chem, 2022)

Tests used:
[1] = target: Receptor tyrosine-protein kinase erbB-2 (Homo sapiens, UniProt P04626); assay: Inhibition of N-terminal GST fused HER2 (679 to 1255 residues) (unknown origin) using poly (Glu-Tyr) E4Y1 peptide as substrate measured after 4 hrs by ADP-Glo reagent method
[2] = target: Epidermal growth factor receptor (Homo sapiens, UniProt P00533); assay: Inhibition of N-terminal GST fused EGFR (668 to 1091 residues) (unknown origin) using poly (Glu-Tyr) E4Y1 peptide as substrate incubated for 2 hrs by ADP-Glo reagent method
Chain of Epidermal growth factor receptor (P00533 whole entry, the tested form may be a part): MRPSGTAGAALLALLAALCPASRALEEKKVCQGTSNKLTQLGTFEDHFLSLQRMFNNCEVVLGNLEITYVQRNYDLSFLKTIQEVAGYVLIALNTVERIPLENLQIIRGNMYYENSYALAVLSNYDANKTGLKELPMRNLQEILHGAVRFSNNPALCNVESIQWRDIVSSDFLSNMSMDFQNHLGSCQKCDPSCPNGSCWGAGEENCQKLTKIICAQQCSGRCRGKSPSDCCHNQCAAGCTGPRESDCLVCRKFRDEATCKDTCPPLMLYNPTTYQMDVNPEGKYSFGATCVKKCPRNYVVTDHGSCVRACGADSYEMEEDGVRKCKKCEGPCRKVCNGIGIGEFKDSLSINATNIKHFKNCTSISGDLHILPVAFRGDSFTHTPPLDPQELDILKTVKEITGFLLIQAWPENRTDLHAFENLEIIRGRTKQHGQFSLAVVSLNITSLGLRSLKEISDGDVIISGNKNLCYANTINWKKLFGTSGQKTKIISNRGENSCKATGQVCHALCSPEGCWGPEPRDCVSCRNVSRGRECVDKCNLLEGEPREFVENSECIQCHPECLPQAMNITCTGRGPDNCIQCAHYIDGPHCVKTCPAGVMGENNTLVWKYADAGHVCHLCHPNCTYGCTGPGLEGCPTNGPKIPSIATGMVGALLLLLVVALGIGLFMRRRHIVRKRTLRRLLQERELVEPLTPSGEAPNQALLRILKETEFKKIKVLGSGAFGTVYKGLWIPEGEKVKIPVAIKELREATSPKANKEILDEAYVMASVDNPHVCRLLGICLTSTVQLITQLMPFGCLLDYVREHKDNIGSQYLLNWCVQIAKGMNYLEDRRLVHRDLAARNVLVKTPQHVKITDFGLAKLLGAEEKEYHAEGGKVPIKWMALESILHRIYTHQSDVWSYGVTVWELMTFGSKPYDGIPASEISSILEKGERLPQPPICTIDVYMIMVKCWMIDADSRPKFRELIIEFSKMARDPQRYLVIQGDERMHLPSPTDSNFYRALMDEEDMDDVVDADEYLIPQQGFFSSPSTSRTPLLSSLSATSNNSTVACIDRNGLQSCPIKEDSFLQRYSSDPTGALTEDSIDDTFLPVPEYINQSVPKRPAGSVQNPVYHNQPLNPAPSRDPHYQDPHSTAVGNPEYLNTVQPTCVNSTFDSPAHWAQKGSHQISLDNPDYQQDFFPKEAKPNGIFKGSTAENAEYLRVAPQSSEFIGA

Chain of Receptor tyrosine-protein kinase erbB-2 (P04626 whole entry, the tested form may be a part): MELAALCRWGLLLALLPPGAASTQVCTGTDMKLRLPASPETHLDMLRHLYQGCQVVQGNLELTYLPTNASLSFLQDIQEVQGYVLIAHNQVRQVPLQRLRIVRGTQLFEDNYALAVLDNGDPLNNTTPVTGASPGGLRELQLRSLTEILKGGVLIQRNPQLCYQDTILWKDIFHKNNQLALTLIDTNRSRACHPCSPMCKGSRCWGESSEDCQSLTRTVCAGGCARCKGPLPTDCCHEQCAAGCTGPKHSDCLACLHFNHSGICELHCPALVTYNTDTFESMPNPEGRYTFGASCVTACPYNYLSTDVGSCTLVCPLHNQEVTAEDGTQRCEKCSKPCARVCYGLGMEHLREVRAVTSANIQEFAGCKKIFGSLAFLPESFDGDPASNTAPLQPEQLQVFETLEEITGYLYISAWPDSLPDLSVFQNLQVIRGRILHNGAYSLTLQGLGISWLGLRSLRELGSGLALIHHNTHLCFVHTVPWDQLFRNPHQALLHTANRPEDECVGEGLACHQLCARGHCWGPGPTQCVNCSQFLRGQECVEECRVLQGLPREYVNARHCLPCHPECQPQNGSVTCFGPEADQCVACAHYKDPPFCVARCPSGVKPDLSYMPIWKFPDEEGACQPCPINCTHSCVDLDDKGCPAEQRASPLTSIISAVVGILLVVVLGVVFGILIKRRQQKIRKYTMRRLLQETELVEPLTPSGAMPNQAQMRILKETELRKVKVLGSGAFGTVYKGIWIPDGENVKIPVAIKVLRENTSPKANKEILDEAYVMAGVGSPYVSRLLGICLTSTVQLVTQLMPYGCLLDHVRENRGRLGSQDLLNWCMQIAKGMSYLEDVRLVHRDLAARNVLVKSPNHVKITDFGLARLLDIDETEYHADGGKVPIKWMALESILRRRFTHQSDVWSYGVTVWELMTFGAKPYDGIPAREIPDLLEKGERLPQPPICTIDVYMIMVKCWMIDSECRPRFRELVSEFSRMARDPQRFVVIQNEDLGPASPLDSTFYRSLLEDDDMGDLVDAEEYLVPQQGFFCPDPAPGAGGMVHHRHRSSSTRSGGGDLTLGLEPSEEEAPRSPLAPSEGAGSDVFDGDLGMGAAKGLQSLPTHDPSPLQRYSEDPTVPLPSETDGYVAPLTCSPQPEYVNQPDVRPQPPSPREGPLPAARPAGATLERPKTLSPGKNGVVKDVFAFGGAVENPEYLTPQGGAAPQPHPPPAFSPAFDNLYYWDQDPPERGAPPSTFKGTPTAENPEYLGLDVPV

For `Cc1cc(Nc2ncnc3ccc(NC4=NC(C)(C)CO4)cc23)ccc1Oc1ccn2ncnc2c1` [TUCATINIB], the IC50 [1] was 6.9 nM and the IC50 [2] was 449 nM.
